The values below come from patent US6603012B2, “RAR selective retinoid agonists” (Hoffmann-La Roche Inc., priority 2000, dated 2003).

The test system of the first data set is elastase-induced emphysema. Briefly: Repair of alveoli in the rat model of elastase-induced emphysema (morphometric analysis). The class given is in vivo, male Sprague Dawley rats. The settings on record: 0.003 mg/kg p.o., once daily starting 21 days post elastase injury. On the procedure: RAR selective agonists were evaluated for its effects on alveolar repair in the rat model of elastase-induced emphysema in rats (D. Massaro et al. Nature Medicine (1997, 3, 675). Animals were divided into treatment groups of approximately eight. Lung inflammation and alveolar damage was induced in male Sprague Dawley rats by a single instillation of pancreatic elastase(porcine derived, Calbiochem) 2 U/gram body mass. Three weeks post injury, all-trans retinoic acid or RAR agonist was dissolved in dimethylsulfoxide (20 mg/ml) and stored at −20 C. Fresh working stocks were prepared daily by dilution in PBS to a final concentration of 2 mg/ml. Animals were dosed once daily with the retinoid by intraperitoneal injection or orally, starting 21 days post injury. Control groups were challenged with elastase and 21 days later treated with Vehicle (DMSO/PBS) for 14 days. Animals were sacrificed 24 hours after the last dose by exsanguination under deep anesthesia. The lungs were inflated with 10% neutral buffered formalin by intratracheal instillation at a constant rate (1 ml/gram body mass/min). The lung was excised and immersed in fixative for 24 hours prior to processing. Standard methods were used to prepare 5 um paraffin sections. Sections were stained with Hematoxylin and Eosin (H%E). Computerized Morphometric analysis was performed to determine the average alveolar size and alveolar number (Table 1).
Regarding `CCCCCC(/C=C/c1ccc(C(=O)O)cc1)c1ccc2c(c1)C(C)(C)CCC2(C)C` (racemic) [(RS)-(E)-4-[3-(5,5,8,8-tetramethyl-5,6,7,8-tetrahydronaphthalen-2-yl)-oct-1-enyl]-benzoic Acid], the “% repair area” value stood at 53%.

The data set is the same for the next values; noted with them: 0.01 mg/kg p.o., once daily starting 21 days post elastase injury.
For `CCCCCC(/C=C/c1ccc(C(=O)O)cc1)c1ccc2c(c1)C(C)(C)CCC2(C)C` (racemic) [(RS)-(E)-4-[3-(5,5,8,8-tetramethyl-5,6,7,8-tetrahydronaphthalen-2-yl)-oct-1-enyl]-benzoic Acid], the “% repair area” value is 49%.

Staying with this data set, now noted: 0.03 mg/kg p.o., once daily starting 21 days post elastase injury.
Take `CCCCCC(/C=C/c1ccc(C(=O)O)cc1)c1ccc2c(c1)C(C)(C)CCC2(C)C` (racemic) [(RS)-(E)-4-[3-(5,5,8,8-tetramethyl-5,6,7,8-tetrahydronaphthalen-2-yl)-oct-1-enyl]-benzoic Acid]: the “% repair area” value is recorded as 32%.

System in the next data set: not given
Experiment: not given
Settings: not given
Broadly, the melting point is the temperature, or range, at which the solid turns liquid. On to `CC1(C)CCC(C)(C)c2cc(C(/C=C/c3ccc(C(=O)O)cc3)CCc3ccccc3)ccc21` (racemic) [Example 10.11, (RS)-(E)-4-[5-Phenyl-3-(5,5,8,8-tetramethyl-5,6,7,8-tetrahydronaphthalen-2-yl)-pent-1-enyl]-benzoic acid], for which the melting point is 78 to 79 °C.

`CCCOC(C(=O)Oc1ccc(C(=O)O)cc1)c1ccc2c(c1)C(C)(C)CCC2(C)C` (racemic) [Example 15.4. d), (RS)-4-[propoxy-(5,5,8,8-tetramethyl-5,6,7,8-tetrahydro-naphthalen-2-yl)-acetoxy]-benzoic acid] came in with a melting point of 155 to 156 °C. As to `CC(C)CC(/C=C/c1ccc(C(=O)O)cc1)c1ccc2c(c1)C(C)(C)CCC2(C)C` (racemic) [Example 10.7, (RS)-(E)-4-[5-Methyl-3-(5,5,8,8-tetramethyl-5,6,7,8-tetrahydronaphthalen-2-yl)-hex-1-enyl]-benzoic acid], the melting point is 61 to 78 °C.

In the case of `COc1ccc(CC(/C=C/c2ccc(C(=O)O)cc2)c2ccc3c(c2)C(C)(C)CCC3(C)C)cc1` (racemic) [Example 10.15, (RS)-(E)-4-[4-(4-Methoxyphenyl)-3-(5,5,8,8-tetramethyl-5,6,7,8-tetrahydronaphthalen-2-yl)-but-1-enyl]-benzoic acid], the melting point fell in the range of 170 to 175 °C.

As for `CC(/C=C/c1ccc(C(=O)O)cc1)c1ccc2c(c1)C(C)(C)CCC2(C)C` (racemic) [Example 10.2, (RS)-(E)-4-[3-(5,5,8,8-Tetramethyl-5,6,7,8-tetrahydronaphthalen-2-yl)-but-1-enyl]-benzoic acid], the melting point was in the range of 203 to 204 °C. For `CCCCCC(/C=C/c1ccc(C(=O)O)s1)c1ccc2c(c1)C(C)(C)CCC2(C)C` (racemic) [Example 10.12, (RS)-(E)-5-[3-(5,5,8,8-Tetramethyl-5,6,7,8-tetrahydronaphthalen-2-yl)-oct-1-enyl]-thiophene-2-carboxylic acid], the melting point lay within 128 to 129 °C. Same read-out and setting: for `CC1(C)CCC(C)(C)c2cc(C(Cc3ccc(C(F)(F)F)cc3)C(=O)Oc3ccc(C(=O)O)cc3)ccc21` (racemic) [Example 3.4, (RS)-4-[2-(5,5,8,8-Tetramethyl-5,6,7,8-tetrahydronaphthalen-2-yl)-3-(4-trifluoromethylphenyl)-propanoyloxy]-benzoic acid] the value was 158 to 159 °C; for `CCCCCC(C#Cc1ccc(C(=O)O)cc1)c1ccc2c(c1)C(C)(C)CCC2(C)C` (racemic) [Example 12, (RS)-4-[3-(5,5,8,8-tetramethyl-5,6,7,8-tetrahydronaphthalen-2-yl)-oct-1-ynyl]-benzoic Acid], 115 to 116 °C. As to `CCOC(C(=O)Oc1ccc(C(=O)O)cc1)c1ccc2c(c1)C(C)(C)CCC2(C)C` (racemic) [Example 15.3. d), (RS)-4-[ethoxy-(5,5,8,8-tetramethyl-5,6,7,8-tetrahydro-naphthalen-2-yl)-acetoxy]-benzoic acid], the melting point lay in the range of 123 to 125 °C.

`CCCCC(/C=C/c1ccc(C(=O)O)cc1)c1ccc2c(c1)C(C)(C)CCC2(C)C` (racemic) [Example 10.5, (RS)-(E)-4-[3-(5,5,8,8-Tetramethyl-5,6,7,8-tetrahydronaphthalen-2-yl)-hept-1-enyl]-benzoic acid] returned a melting point of 107 to 108 °C.

Molecule `CC1(C)CCC(C)(C)c2cc(C(/C=C/c3ccc(C(=O)O)cc3)Cc3ccccc3)ccc21` (racemic) [Example 10.8, (RS)-(E)-4-[4-Phenyl-3-(5,5,8,8-tetramethyl-5,6,7,8-tetrahydronaphthalen-2-yl)-but-1-enyl]-benzoic acid] yielded a melting point of 183 to 184 °C. On the same count and under the same terms, in the case of `CCOCCC(C(=O)Oc1ccc(C(=O)O)cc1)c1ccc2c(c1)C(C)(C)CCC2(C)C` (racemic) [Example 3.5, (RS)-4-[4-Ethoxy-2-(5,5,8,8-tetramethyl-5,6,7,8-tetrahydronaphthalen-2-yl)-butanoyloxy]-benzoic acid] it was 133 to 134 °C; in that of `CCCCOC(C(=O)Oc1ccc(C(=O)O)cc1)c1ccc2c(c1)C(C)(C)CCC2(C)C` (single isomer, unassigned) [Example 16 (from diastereomer II), (S)- or (R)-4-[butoxy-(5,5,8,8-tetramethyl-5,6,7,8-tetrahydro-naphthalen-2-yl)-acetoxy]-benzoic acid], 113 to 114 °C; in that of `CC=CCC(/C=C/c1ccc(C(=O)O)cc1)c1ccc2c(c1)C(C)(C)CCC2(C)C` (racemic) [Example 10.4, (RS)-(E)-4-[3-(5,5,8,8-Tetramethyl-5,6,7,8-tetrahydronaphthalen-2-yl)-hepta-1,5-dienyl]-benzoic acid], 145 to 147 °C.

With `CC1(C)CCC(C)(C)c2cc(C(Cc3ccccc3)C(=O)Oc3ccc(C(=O)O)cc3)ccc21` (racemic) [Example 3.2, (RS)-4-[3-Phenyl-2-(5,5,8,8-tetramethyl-5,6,7,8-tetrahydronaphthalen-2-yl)-propanoyloxy]-benzoic acid], the melting point was in the range of 163 to 164 °C. On the same count and under the same terms, for `CC1(C)CCSc2ccc(C(/C=C/c3ccc(C(=O)O)cc3)CCc3ccccc3)cc21` (racemic) [Example 40.3, (RS)-(E)-4-[3-(4,4-Dimethyl-thiochroman-6-yl)-5-phenylpent-1-enyl]-benzoic acid] the value was 63 to 76 °C; for `CC1(C)CCC(C)(C)c2cc(CCOc3ccc(C(=O)O)cc3)ccc21` [Example 11.2, 4-[2-(5,5,8,8-Tetramethyl-5,6,7,8-tetrahydronaphthalen-2-yl)-ethyloxy]-benzoic acid], 195 to 196 °C. `CC1(C)CCC(C)(C)c2cc(C(/C=C/c3ccc(C(=O)O)cc3)Cc3ccc(Cl)cc3)ccc21` (racemic) [Example 10.9, (RS)-(E)-4-[4-(4-Chlorophenyl)-3-(5,5,8,8-tetramethyl-5,6,7,8-tetrahydronaphthalen-2-yl)-but-1-enyl]-benzoic acid] displayed a melting point of 168 to 169 °C. The same measure, in the same setting: in the case of `CCCCOC(C(=O)Oc1ccc(C(=O)O)cc1)c1ccc2c(c1)C(C)(C)CCC2(C)C` (single isomer, unassigned) [Example 16 (from diastereomer I), (R)- or (S)-4-[butoxy-(5,5,8,8-tetramethyl-5,6,7,8-tetrahydro-naphthalen-2-yl)-acetoxy]-benzoic acid] it was 112 to 113 °C; in that of `CC1(C)CCC(C)(C)c2cc(C(/C=C/c3ccc(C(=O)O)cc3)Cc3ccc(F)cc3)ccc21` (racemic) [Example 10.13, (RS)-(E)-4-[4-(4-Fluorophenyl)-3-(5,5,8,8-tetramethyl-5,6,7,8-tetrahydronaphthalen-2-yl)-but-1-enyl]-benzoic acid], 168 to 169 °C; in that of `CCCCCC(/C=C/c1ccc(C(=O)O)cc1F)c1ccc2c(c1)C(C)(C)CCC2(C)C` (racemic) [Example 10.16, (RS)-(E)-3-Fluoro-4-[3-(5,5,8,8-tetramethyl-5,6,7,8-tetrahydronaphthalen-2-yl)-oct-1-enyl]-benzoic acid], 112 to 113 °C. In the case of `COC(C(=O)Oc1ccc(C(=O)O)cc1)c1ccc2c(c1)C(C)(C)CCC2(C)C` (racemic) [Example 15.2. d), (RS)-4-[methoxy-(5,5,8,8-tetramethyl-5,6,7,8-tetrahydro-naphthalen-2-yl)-acetoxy]-benzoic acid], the melting point was in the range of 190 to 195 °C.

`CC1(C)CCSc2ccc(C(/C=C/c3ccc(C(=O)O)cc3)Cc3ccccc3)cc21` (racemic) [Example 40.2, (RS)-(E)-4-[3-(4,4-Dimethyl-thiochroman-6-yl)-4-phenylbut-1-enyl]-benzoic acid]: the melting point was in the range of 183 to 184 °C. The same measure, in the same setting: in the case of `CCCC(/C=C/c1ccc(C(=O)O)cc1)c1ccc2c(c1)C(C)(C)CCC2(C)C` (racemic) [Example 10.3, (RS)-(E)-4-[3-(5,5,8,8-Tetramethyl-5,6,7,8-tetrahydronaphthalen-2-yl)-hex-1-enyl]-benzoic acid] it was 116 to 118 °C.

The subject of a further data set is animal models of emphysema.
Experiment: not given
As to conditions: cited from earlier work.
Regarding `CC1=C(/C=C/C(C)=C/C=C/C(C)=C/C(=O)O)C(C)(C)CCC1` [all-trans retinoic acid], the “formation of new alveoli and elastic recoil” value was “can induce formation of new alveoli and return elastic recoil to near normal”.

In a further data set the test system is alveoli in rats.
Experiment: not given
As to conditions: postnatal administration; cited from earlier work.
With `CC1=C(/C=C/C(C)=C/C=C/C(C)=C/C(=O)O)C(C)(C)CCC1` [all-trans retinoic acid], the number of alveoli result is recorded as “increases the number of alveoli in rats”.
